Each block holds one molecule with its values, some of them ahead of it.
Experiments:
[1] = biological target: T1, A3+B3 (heteromeric CNGA3 + CNGB3) channels (Homo sapiens, UniProt Q16281+Q9NQW8); experiment: inside-out patch clamp, macroscopic current dose-response, Hill fit; assay type: cell-based
T1 sequence (Q16281 1-694): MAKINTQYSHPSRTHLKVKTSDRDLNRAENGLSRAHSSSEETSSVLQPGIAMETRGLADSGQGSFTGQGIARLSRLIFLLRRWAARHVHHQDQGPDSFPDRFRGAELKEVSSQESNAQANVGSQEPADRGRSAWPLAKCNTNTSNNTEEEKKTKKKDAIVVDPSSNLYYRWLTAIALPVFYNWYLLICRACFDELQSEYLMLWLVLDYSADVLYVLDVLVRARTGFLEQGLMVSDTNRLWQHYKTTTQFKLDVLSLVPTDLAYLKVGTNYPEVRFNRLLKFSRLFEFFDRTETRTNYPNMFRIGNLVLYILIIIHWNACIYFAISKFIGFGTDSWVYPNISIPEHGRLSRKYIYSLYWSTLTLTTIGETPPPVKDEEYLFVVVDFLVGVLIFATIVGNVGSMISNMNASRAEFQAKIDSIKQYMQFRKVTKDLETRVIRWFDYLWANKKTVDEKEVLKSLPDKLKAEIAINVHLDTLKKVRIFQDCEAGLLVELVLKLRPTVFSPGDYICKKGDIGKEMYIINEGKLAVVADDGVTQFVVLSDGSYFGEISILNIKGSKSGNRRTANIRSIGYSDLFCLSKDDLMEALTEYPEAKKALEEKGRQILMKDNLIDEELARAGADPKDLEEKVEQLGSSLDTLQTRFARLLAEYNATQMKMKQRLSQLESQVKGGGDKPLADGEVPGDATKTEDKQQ
T1 sequence (Q9NQW8 1-809): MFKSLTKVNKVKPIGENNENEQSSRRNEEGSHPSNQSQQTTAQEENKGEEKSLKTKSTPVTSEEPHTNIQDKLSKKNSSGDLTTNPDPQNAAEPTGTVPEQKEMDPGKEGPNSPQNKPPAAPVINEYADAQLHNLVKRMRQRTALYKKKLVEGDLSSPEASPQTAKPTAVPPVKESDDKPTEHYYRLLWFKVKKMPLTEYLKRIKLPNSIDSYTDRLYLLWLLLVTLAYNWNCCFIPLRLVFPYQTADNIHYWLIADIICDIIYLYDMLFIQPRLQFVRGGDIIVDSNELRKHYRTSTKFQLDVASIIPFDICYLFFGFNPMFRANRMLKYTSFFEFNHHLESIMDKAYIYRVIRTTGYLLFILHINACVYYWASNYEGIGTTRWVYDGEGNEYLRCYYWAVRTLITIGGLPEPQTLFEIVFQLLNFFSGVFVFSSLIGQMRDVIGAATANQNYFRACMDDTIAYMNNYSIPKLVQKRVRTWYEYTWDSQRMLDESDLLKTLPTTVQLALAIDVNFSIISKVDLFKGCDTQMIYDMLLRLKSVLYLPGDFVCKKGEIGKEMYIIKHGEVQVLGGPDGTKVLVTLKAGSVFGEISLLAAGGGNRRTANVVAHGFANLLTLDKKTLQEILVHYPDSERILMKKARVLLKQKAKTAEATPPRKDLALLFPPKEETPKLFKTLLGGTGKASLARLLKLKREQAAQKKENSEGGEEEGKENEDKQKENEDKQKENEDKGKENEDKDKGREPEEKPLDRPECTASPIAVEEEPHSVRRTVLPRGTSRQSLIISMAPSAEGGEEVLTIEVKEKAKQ

[2] = biological target: T2, A3 (homomeric CNGA3) channels (Homo sapiens, UniProt Q16281); experiment: as above; assay type: cell-based
T2 sequence (Q16281 1-694): T1 sequence (Q16281 1-694)

[3] = anti-FLAG immunoblot, intact oocytes exposed to MMPs 1 h; conditions: glycan lost; control: glycosylated form of A3wt subunits

EC50 [1]: 15.2 ± 1.1 µM
EC50 [2]: 5.6 ± 1 µM
Molecule: Nc1nc2c(ncn2[C@@H]2O[C@@H]3COP(=O)(O)O[C@H]3[C@H]2O)c(=O)[nH]1 [cGMP]

B1: CNGA3: A3N339Q (protein)
parent chain: T1 sequence (Q16281 1-694)
other: proteolytic processing [3]: increases
